Results taken from ChEMBL document CHEMBL1143852, “Controlled trial of a 5-day course of telithromycin versus doxycycline for treatment of mild to moderate scrub typhus” (2007).

Test system: Orientia tsutsugamushi
Assay: Antimicrobial activity against doxycyclin-resistant Orientia tsutsugamushi in patient of scrub typhus assessed as recovery from infection
Format: functional

| Structure (SMILES) | Activity [%] |
| --- | --- |
| CC[C@H]1OC(=O)[C@H](C)C(=O)[C@H](C)[C@@H](O[C@@H]2O[C@H](C)C[C@H](N(C)C)[C@H]2O)[C@](C)(OC)C[C@@H](C)C(=O)[C@H](C)[C@H]2N(CCCCn3cnc(-c4cccnc4)c3)C(=O)O[C@]12C [TELITHROMYCIN] | 100 |
| C[C@H]1c2cccc(O)c2C(=O)C2=C(O)[C@]3(O)C(=O)C(C(N)=O)=C(O)[C@@H](N(C)C)[C@@H]3[C@@H](O)[C@@H]21.O [DOXYCYCLINE] | 97.8 |
